In patent publication US11452731B2, “Method of treating and preventing loss of cognition” (ENDORECHERCHE, INC., priority 2009, dated 2022):
“And” between values parts separate entries of the source, which are not always exact repeats. Identical values can stand only once.

Assay: Clinical trial ERC-205: DHEA 50 mg daily versus placebo on hot flushes in postmenopausal women (Example 10)
Type: in vivo
Conditions: for NUMBER OF MODERATE TO SEVERE HOT FLUSHES PER WEEK (MEAN) / WEIGHTED SEVERITY SCORE OF HOT FLUSHES PER WEEK (MEAN) / NUMBER OF ALL HOT FLUSHES PER WEEK (MEAN): 50 mg, strata ≥71 hot flushes per week at screening; for Number of all hot flushes per week, MEAN / Number of moderate to severe hot flushes per week, MEAN / Weighted severity score of hot flushes per week, MEAN / Mean change from baseline: Frequency of all HF / Mean change from baseline: Frequency of moderate-severe HF / Mean change from baseline: Weighted severity score of HF: DHEA 50 mg daily; for number of all hot flushes per week: women having more than 70 mild, moderate plus severe hot flushes
Experimental: Postmenopausal women experiencing moderate or severe hot flushes per week (as determined by a two week diary) were randomized to receive a daily dose of either placebo or 50 mg DHEA. Fifty evaluable participants (25 patients per arm) were treated for four months with a daily assessment of hot flushes recorded in a diary completed by each participant.
Postmenopausal women aged 40 to 70 years with moderate or severe hot flushes per week, as confirmed by a two-week screening hot flush diary were enrolled after signing informed consent. The protocol was approved by the Institutional Review Board (IRB) of Le Centre Hospitalier de l'Université Laval and by Health Canada.
The primary endpoint was the change from Baseline in the weekly frequency of moderate to severe hot flushes at Week 16, after four months of treatment. The objectives also included the change from Baseline in the weekly frequency of all hot flushes and the change from Baseline in the weekly weighted severity score.
The response endpoint is the patient's paper diary which was filled in daily to specify the number and type of hot flushes as follows:
The hot flush diary began as a Screening diary for two weeks prior to randomization whereby patients had to complete the diary daily, recording the number and severity of hot flushes. The patients had to record an average of 50 or more moderate or severe hot flushes per week over the two-week period to be eligible (i.e., at least 100 hot flushes documented on the two week Screening diary).
Once randomized, the patient completed eight, two-week hot flush diaries upon beginning study medication. The diaries had to be filled out on a daily basis. The first diary was completed over the first two weeks and be returned on the two week visit. The second two-week diary was completed over the next two weeks of the first four week treatment period and was returned at the four week visit. At 4, 8, 12 and 16 week visits, two two-week diaries for hot flushes were collected.

[1] = Screening (mean of 2 w), baseline
[2] = women having 71 or more hot flushes per week at screening
[3] = women having between 50 and 70 per week

Compound: C[C@]12CC[C@H](O)CC1=CC[C@@H]1[C@@H]2CC[C@]2(C)C(=O)CC[C@@H]12 [DHEA, dehydroepiandrosterone]
- NUMBER OF MODERATE TO SEVERE HOT FLUSHES PER WEEK (MEAN) (Week 14): 32.0
- WEIGHTED SEVERITY SCORE OF HOT FLUSHES PER WEEK (MEAN) (Week 14): 96.6
- NUMBER OF ALL HOT FLUSHES PER WEEK (MEAN) (Week 15): 38.8
- NUMBER OF MODERATE TO SEVERE HOT FLUSHES PER WEEK (MEAN) (Week 15): 34.4
- WEIGHTED SEVERITY SCORE OF HOT FLUSHES PER WEEK (MEAN) (Week 15): 103.6
- NUMBER OF ALL HOT FLUSHES PER WEEK (MEAN) (Week 16): 36.3
- NUMBER OF MODERATE TO SEVERE HOT FLUSHES PER WEEK (MEAN) (Week 16): 31.6
- WEIGHTED SEVERITY SCORE OF HOT FLUSHES PER WEEK (MEAN) (Week 16): 95.2
- Number of all hot flushes per week, MEAN [1]: 75.5±4.4 and 75.7
- Number of moderate to severe hot flushes per week, MEAN [1]: 70.7±4.5 and 70.7
- Weighted severity score of hot flushes per week, MEAN [1]: 187.1±13.9 and 187.1
- Number of all hot flushes per week, MEAN (Week 1): 64.2
- Number of moderate to severe hot flushes per week, MEAN (Week 1): 58.6
- Weighted severity score of hot flushes per week, MEAN (Week 1): 156.0
- Number of all hot flushes per week, MEAN (Week 2): 56.4
- Number of moderate to severe hot flushes per week, MEAN (Week 2): 51.0
- Weighted severity score of hot flushes per week, MEAN (Week 2): 137.5
- Number of all hot flushes per week, MEAN (Week 3): 54.6
- Number of moderate to severe hot flushes per week, MEAN (Week 3): 49.1
- Weighted severity score of hot flushes per week, MEAN (Week 3): 132.5
- Mean change from baseline: Frequency of all HF (Week 4): −20.4
- Mean change from baseline: Frequency of moderate-severe HF (Week 4): −20.6
- Mean change from baseline: Weighted severity score of HF (Week 4): −51.4
- Number of all hot flushes per week, MEAN (Week 4): 55.3±5.8 and 55.3
- Number of moderate to severe hot flushes per week, MEAN (Week 4): 50.1±5.7 and 50.1
- Weighted severity score of hot flushes per week, MEAN (Week 4): 135.7
- Number of all hot flushes per week, MEAN (Week 5): 49.8
- Number of moderate to severe hot flushes per week, MEAN (Week 5): 44.4
- Weighted severity score of hot flushes per week, MEAN (Week 5): 120.9
- Number of all hot flushes per week, MEAN (Week 6): 47.9
- Number of moderate to severe hot flushes per week, MEAN (Week 6): 43.0
- Weighted severity score of hot flushes per week, MEAN (Week 6): 115.2
- Number of all hot flushes per week, MEAN (Week 7): 44.5
- Number of moderate to severe hot flushes per week, MEAN (Week 7): 39.6
- Weighted severity score of hot flushes per week, MEAN (Week 7): 108.3
- Mean change from baseline: Frequency of all HF (Week 8): −31.0
- Mean change from baseline: Frequency of moderate-severe HF (Week 8): −30.1
- Mean change from baseline: Weighted severity score of HF (Week 8): −76.9
- Number of all hot flushes per week, MEAN (Week 8): 44.7±6.3 and 44.7
- Number of moderate to severe hot flushes per week, MEAN (Week 8): 40.2±6.1 and 40.2
- Weighted severity score of hot flushes per week, MEAN (Week 8): 109.4
- Number of all hot flushes per week, MEAN (Week 9): 44.3
- Number of moderate to severe hot flushes per week, MEAN (Week 9): 39.6
- Weighted severity score of hot flushes per week, MEAN (Week 9): 106.5
- Number of all hot flushes per week, MEAN (Week 10): 43.1
- Number of moderate to severe hot flushes per week, MEAN (Week 10): 38.6
- Weighted severity score of hot flushes per week, MEAN (Week 10): 104.5
- Number of all hot flushes per week, MEAN (Week 11): 40.9
- Number of moderate to severe hot flushes per week, MEAN (Week 11): 36.0
- Weighted severity score of hot flushes per week, MEAN (Week 11): 98.2
- Mean change from baseline: Frequency of all HF (Week 12): −36.2
- Mean change from baseline: Frequency of moderate-severe HF (Week 12): −35.6
- Mean change from baseline: Weighted severity score of HF (Week 12): −93.6
- Number of all hot flushes per week, MEAN (Week 12): 39.5±5.9 and 39.5
- Number of moderate to severe hot flushes per week, MEAN (Week 12): 34.7±5.8 and 34.7
- Weighted severity score of hot flushes per week, MEAN (Week 12): 92.7
- Number of all hot flushes per week, MEAN (Week 13): 37.5
- Number of moderate to severe hot flushes per week, MEAN (Week 13): 33.2
- Weighted severity score of hot flushes per week, MEAN (Week 13): 90.1
- Number of all hot flushes per week, MEAN (Week 14): 37.6
- Number of moderate to severe hot flushes per week, MEAN (Week 14): 33.3
- Weighted severity score of hot flushes per week, MEAN (Week 14): 90.9
- Number of all hot flushes per week, MEAN (Week 15): 37.5
- Number of moderate to severe hot flushes per week, MEAN (Week 15): 34.0
- Weighted severity score of hot flushes per week, MEAN (Week 15): 91.8
- Mean change from baseline: Frequency of all HF (Week 16): −39.8
- Mean change from baseline: Frequency of moderate-severe HF (Week 16): −38.1
- Mean change from baseline: Weighted severity score of HF (Week 16): −99.1
- Number of all hot flushes per week, MEAN (Week 16): 36.0±5.7 and 36.0
- Number of moderate to severe hot flushes per week, MEAN (Week 16): 32.2±5.8 and 32.2
- Weighted severity score of hot flushes per week, MEAN (Week 16): 87.2±15.8 and 87.2
- reduction of the weighted severity score (all women, week 16 (Table 18)): 99.1±15.6
- decrease in weighted severity score (at 16 weeks): 53.4%
- higher efficacy of DHEA than placebo on weighted severity score (at 16 weeks): 3.0 fold
- decrease in frequency of all hot flushes (screening to week 16): 52.4%
- decrease in number of moderate to severe hot flushes (screening to week 16): 54.5%
- decrease in moderate to severe hot flushes [2]: 64.3%
- greater inhibition by DHEA than placebo [2]: 65%
- mean number of moderate to severe hot flushes per week (women having 71 or more hot flushes per week at screening, after DHEA treatment): 31.6±11.6
- mean number of moderate to severe hot flushes per week (women having 71 or more hot flushes per week at screening, screening value): 88.5±7.1
- decrease in weighted severity score (women having between 50 and 70 hot flushes per week): 43.5%
- weighted severity score (women having between 50 and 70 hot flushes per week, screening): 144.3±6.7
- weighted severity score (women having between 50 and 70 hot flushes per week, week 16): 81.6±13.6
- decrease in moderate to severe hot flushes [3]: 43.3%
- inhibition by DHEA over the placebo effect [3]: 43%
- number of moderate to severe hot flushes per week (women having between 50 and 70 per week, prescreening): 56.7±1.3
- number of moderate to severe hot flushes per week (women having between 50 and 70 per week, week 6 as printed): 32.7±6.2
- decrease in number of all hot flushes (women having more than 70 hot flushes): 60%
- decrease in weighted severity score (women having more than 70 hot flushes per week): 61.6%
- weighted severity score (women having more than 70 hot flushes per week, screening): 241.6±21.1
- weighted severity score (women having more than 70 hot flushes per week, week 16): 95.2±34.3
- number of all hot flushes per week (prescreening): 91.0±7.0
- number of all hot flushes per week (week 16): 36.3±11.5
- greater efficacy of DHEA than placebo (women having the largest number of hot flushes of all degrees of severity): 50%
